In patent US4038278A, “4-Aminopyrimidium derivatives and preparation thereof” (Eisai Co., Ltd., priority 1974, dated 1977):

Legend:
Format in all cases: in vivo, rat (Wistar strain)
[1] = test system: Stress Ulcer (Immersion); assay: Stress Ulcer (Immersion) at 23-25° C. for 20 hrs
Description: Using rats of Wistar strain as test animals weighing about 150 - 160 g., the anti-ulcer activities were measured in accordance with the conventional manner with respect to the following four (4) items.
i. Stress Ulcer (Immersion) at 23° - 25° C. for 20 hrs.

[2] = test system: stomach mucosa; assay: Degree of gastric trouble (visible observation of stomach mucosa)
From the text: 2. Degree of gastric trouble
The rats used in above test of anti-edematic effects were slaughtered, and their stomaches were visibly observed in accordance with the under-mentioned bases. Measurement values were decided by summing up the respective data of 4 tests of each group.
Visible observation of the stomach mucosa
No abnormality is recognized
Slight edema, congestion or slight erosion
Scattered or limitted erosion and spotted
Heavy erosion, linear bleeding or enlarged

[3] = test system: Carrageenin edema of the hind paw of the rat; assay: Anti-edematic effect, Carrageenin paw edema method, oral, in rats
Description: Test animal: For the respective compounds, four male rats of the Wistar strain weighing approximately 150g were used. The test animals were made to fast for approximately 16 hours.
The anti-edematic test is carried out by determining the increase of edema due to the injection of […], in accordance with the paw edema method. [see Winter. C. A. et al; Proc. Soc. exp.
The test compounds were respectively suspended in five percent of aqueous solution of gum Arabic, and the suspensions were orally administered to the rats one hour before the injection of the Carrageenin. Activities were determined by measuring the volume of the hind paw of the rat three hours after the administration of the Carrageenin.

| Structure (SMILES) | Inhibitory % (ulcer index) ([1]; 15 mg/Kg p.o.) | Ulcer Index (mm) ([1]; 15 mg/Kg p.o.) | Inhibitory % (ulcer index) ([1]; 30 mg/Kg p.o.) | Ulcer Index (mm) ([1]; 30 mg/Kg p.o., ** P<0.01) | degree of gastric trouble in words ([2]; 100 mg/Kg p.o.) | Degree of gastric trouble ([2]; 100 mg/kg p.o., sum of scores (0-3) of 4 rats) | anti-edematic / anti-inflammatory effect in words ([3]; 100 mg/Kg p.o.) | Anti-edematic ratio (%) ([3]; 100 mg/kg p.o., rats, 3 hours after Carrageenin) | Comparison with Control Compound (anti-edematic ratio) ([3]; 100 mg/kg p.o., Control compound (Aspirin) = 100) |
| --- | --- | --- | --- | --- | --- | --- | --- | --- | --- |
| CC(C)[N+](C)(CCOC(=O)C1c2ccccc2Oc2ccccc21)C(C)C [Propantheline, reference compound] | 37.0% | 43.8 ± 12.9 mm | 61.4% | 26.8 ± 7.4 mm |  |  |  |  |  |
| Cc1cccc(C(=O)C[n+]2ccc(N)nc2)c1 [Compound B, 4-aminopyrimidine N^1-(m-methylphenacyl)bromide] |  |  |  |  | extremely less than that of the Control compound | 6 | equal to, or more than that of the Control compound | 35.3% | 99 |
